# Results taken from article PMC5458547, “Discovery of first-in-class reversible dual small molecule inhibitors against G9a and DNMTs in hematological malignancies” (Nature Communications, 2017).
# Tests used:
# Assay in all cases: KINOMEscan kinase profiling
# Type in all cases: binding
# BRAF = molecular target: T1, BRAF (Homo sapiens, UniProt P15056); conditions: read-out: Percent Control
# T1 construct: purchased DiscoverX KINOMEscan (kinases); BPS Bioscience (epigenetic targets)
# Experimental: (§1) Kinase Selectivity Profiling
# (§2) (out of which 90 are non-mutant kinases) was performed at DiscoverRx (http://www.discoverx.com/home) using the KINOMEscan™ screening platform at a test concentration of 10 µM. Results for primary screen […]
# (§3) positive control signal) / (negative control signal – positive control signal) *100, where negative control corresponds to DMSO treatment (100%) and positive control to the signal obtained with a control competitive compound (0%). […]
# (§4) using the Hill equation. Each target was assayed in duplicate. […]
# EGFR(L858R) = molecular target: T2, EGFR(L858R) (Homo sapiens, UniProt P00533, L858R); conditions: read-out: Percent Control
# T2 construct: purchased DiscoverX KINOMEscan (kinases); BPS Bioscience (epigenetic targets)
# T2 sequence (P00533 25-1210 L858R): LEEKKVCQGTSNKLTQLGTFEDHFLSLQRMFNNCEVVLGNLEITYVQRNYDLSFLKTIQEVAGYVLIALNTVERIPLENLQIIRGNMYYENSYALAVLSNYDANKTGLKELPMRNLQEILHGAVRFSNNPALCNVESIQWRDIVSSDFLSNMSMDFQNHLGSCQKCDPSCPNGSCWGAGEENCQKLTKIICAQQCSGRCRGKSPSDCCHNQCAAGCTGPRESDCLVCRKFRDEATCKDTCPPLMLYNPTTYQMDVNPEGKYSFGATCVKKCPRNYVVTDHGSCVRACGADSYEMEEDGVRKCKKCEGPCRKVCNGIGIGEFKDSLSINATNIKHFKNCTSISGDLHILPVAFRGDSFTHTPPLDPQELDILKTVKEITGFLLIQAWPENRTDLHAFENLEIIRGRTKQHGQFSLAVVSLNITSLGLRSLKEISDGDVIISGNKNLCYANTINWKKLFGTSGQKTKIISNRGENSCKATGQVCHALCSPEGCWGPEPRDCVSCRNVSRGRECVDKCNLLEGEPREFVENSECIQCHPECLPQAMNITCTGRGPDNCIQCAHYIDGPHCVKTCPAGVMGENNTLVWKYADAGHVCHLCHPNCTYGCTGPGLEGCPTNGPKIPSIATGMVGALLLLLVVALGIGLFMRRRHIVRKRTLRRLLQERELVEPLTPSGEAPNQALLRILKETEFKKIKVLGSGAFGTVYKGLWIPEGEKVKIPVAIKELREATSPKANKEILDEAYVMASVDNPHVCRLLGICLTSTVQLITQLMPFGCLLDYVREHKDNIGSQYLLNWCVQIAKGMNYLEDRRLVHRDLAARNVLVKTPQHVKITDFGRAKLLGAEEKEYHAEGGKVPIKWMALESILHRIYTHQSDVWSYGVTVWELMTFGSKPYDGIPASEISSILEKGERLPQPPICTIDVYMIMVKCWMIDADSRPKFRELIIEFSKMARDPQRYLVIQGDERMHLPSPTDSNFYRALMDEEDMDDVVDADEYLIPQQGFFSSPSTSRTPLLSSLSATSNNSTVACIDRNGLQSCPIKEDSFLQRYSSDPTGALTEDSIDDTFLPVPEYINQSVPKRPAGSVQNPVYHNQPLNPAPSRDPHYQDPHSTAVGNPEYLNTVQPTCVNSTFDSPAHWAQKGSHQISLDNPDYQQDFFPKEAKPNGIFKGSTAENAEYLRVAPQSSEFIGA
# Experimental: as §1, §2, §3, §4
# [1] = molecular target: T3, JAK3(JH1domain-catalytic) (Homo sapiens, UniProt P52333)
# T3 construct: JAK3(JH1domain-catalytic); purchased DiscoverRx (DiscoverX), KINOMEscan screening platform
# T3 sequence (P52333 822-1111 limits assumed): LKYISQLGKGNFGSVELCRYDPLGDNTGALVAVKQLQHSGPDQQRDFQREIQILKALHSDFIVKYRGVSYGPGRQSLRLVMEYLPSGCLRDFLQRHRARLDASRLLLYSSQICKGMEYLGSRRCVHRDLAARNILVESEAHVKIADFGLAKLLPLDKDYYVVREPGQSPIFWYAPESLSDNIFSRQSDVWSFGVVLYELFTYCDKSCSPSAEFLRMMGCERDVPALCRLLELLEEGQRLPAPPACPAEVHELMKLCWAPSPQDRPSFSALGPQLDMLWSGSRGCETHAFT
# Experimental: as §1, §2, §3, §4
# LKB1 = molecular target: T4, LKB1 (Homo sapiens, UniProt Q15831); conditions: read-out: Percent Control
# T4 construct: purchased DiscoverX KINOMEscan (kinases); BPS Bioscience (epigenetic targets)
# Experimental: as §1, §2, §3, §4
# JNK2 = molecular target: T5, JNK2 (Homo sapiens, UniProt P45984); conditions: read-out: Percent Control
# T5 construct: purchased DiscoverX KINOMEscan (kinases); BPS Bioscience (epigenetic targets)
# T5 sequence (P45984 whole entry): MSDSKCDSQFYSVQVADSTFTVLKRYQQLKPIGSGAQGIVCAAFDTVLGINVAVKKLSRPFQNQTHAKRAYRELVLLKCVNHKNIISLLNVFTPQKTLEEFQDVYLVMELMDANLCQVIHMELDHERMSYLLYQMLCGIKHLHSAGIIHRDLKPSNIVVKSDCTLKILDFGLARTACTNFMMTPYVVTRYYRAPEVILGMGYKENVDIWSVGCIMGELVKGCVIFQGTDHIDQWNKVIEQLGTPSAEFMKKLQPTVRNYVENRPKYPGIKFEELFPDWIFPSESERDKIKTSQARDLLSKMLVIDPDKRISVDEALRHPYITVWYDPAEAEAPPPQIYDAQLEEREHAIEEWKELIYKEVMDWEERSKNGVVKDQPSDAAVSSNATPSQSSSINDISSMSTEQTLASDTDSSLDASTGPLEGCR
# Experimental: as §1, §2, §3, §4
# FLT3 = molecular target: T6, FLT3 (Homo sapiens, UniProt P36888); conditions: read-out: Percent Control
# T6 construct: purchased DiscoverX KINOMEscan (kinases); BPS Bioscience (epigenetic targets)
# Experimental: as §1, §2, §3, §4
# PDGFRA = molecular target: T7, PDGFRA (Homo sapiens, UniProt P16234); conditions: read-out: Percent Control
# T7 construct: purchased DiscoverX KINOMEscan (kinases); BPS Bioscience (epigenetic targets)
# Experimental: as §1, §2, §3, §4
# KIT(D816V) = molecular target: T8, KIT(D816V) (Homo sapiens, UniProt P10721, D816V); conditions: read-out: Percent Control
# T8 construct: purchased DiscoverX KINOMEscan (kinases); BPS Bioscience (epigenetic targets)
# Experimental: as §1, §2, §3, §4
# ULK2 = molecular target: T9, ULK2 (Homo sapiens, UniProt Q8IYT8); conditions: read-out: Percent Control
# T9 construct: purchased DiscoverX KINOMEscan (kinases); BPS Bioscience (epigenetic targets)
# Experimental: as §1, §2, §3, §4
# PIM2 = molecular target: T10, PIM2 (Homo sapiens, UniProt Q9P1W9); conditions: read-out: Percent Control
# T10 construct: purchased DiscoverX KINOMEscan (kinases); BPS Bioscience (epigenetic targets)
# Experimental: as §1, §2, §3, §4
# [2] = molecular target: T11, ABL1(T315I)-phosphorylated (Homo sapiens, UniProt P00519, T315I); conditions: read-out: Percent Control
# T11 construct: purchased DiscoverX KINOMEscan (kinases); BPS Bioscience (epigenetic targets)
# Experimental: as §1, §2, §3, §4
# PAK2 = molecular target: T12, PAK2 (Homo sapiens, UniProt Q13177); conditions: read-out: Percent Control
# T12 construct: purchased DiscoverX KINOMEscan (kinases); BPS Bioscience (epigenetic targets)
# Experimental: as §1, §2, §3, §4
# TRKA = molecular target: T13, TRKA (Homo sapiens, UniProt P04629)
# T13 construct: purchased DiscoverRx (DiscoverX), KINOMEscan screening platform
# T13 sequence (P04629 33-796): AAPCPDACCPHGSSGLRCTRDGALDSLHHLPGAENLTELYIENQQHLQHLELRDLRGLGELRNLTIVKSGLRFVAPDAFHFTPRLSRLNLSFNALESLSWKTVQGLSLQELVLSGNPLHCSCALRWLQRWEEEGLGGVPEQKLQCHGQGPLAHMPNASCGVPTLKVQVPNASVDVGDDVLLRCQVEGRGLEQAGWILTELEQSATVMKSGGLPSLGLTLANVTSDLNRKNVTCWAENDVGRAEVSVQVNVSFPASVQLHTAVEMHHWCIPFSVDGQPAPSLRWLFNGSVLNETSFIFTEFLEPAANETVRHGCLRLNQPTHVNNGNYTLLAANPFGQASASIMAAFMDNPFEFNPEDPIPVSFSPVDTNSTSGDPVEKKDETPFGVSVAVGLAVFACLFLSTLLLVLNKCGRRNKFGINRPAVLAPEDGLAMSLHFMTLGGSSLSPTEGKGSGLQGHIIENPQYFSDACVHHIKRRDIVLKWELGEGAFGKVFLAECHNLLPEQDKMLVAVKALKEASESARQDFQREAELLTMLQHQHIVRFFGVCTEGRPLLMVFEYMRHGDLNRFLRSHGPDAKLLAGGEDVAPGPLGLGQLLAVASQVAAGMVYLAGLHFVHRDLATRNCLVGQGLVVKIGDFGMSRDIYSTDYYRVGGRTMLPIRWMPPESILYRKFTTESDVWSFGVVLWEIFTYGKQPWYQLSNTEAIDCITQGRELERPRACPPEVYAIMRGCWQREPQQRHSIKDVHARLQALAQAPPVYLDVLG
# Experimental: as §1, §2, §3, §4
# INSR = molecular target: T14, INSR (Homo sapiens, UniProt P06213); conditions: read-out: Percent Control
# T14 construct: purchased DiscoverX KINOMEscan (kinases); BPS Bioscience (epigenetic targets)
# Experimental: as §1, §2, §3, §4
# PLK1 = molecular target: T15, PLK1 (Homo sapiens, UniProt P53350); conditions: read-out: Percent Control
# T15 construct: purchased DiscoverX KINOMEscan (kinases); BPS Bioscience (epigenetic targets)
# Experimental: as §1, §2, §3, §4
# EPHA2 = molecular target: T16, EPHA2 (Homo sapiens, UniProt P29317); conditions: read-out: Percent Control
# T16 construct: purchased DiscoverX KINOMEscan (kinases); BPS Bioscience (epigenetic targets)
# Experimental: as §1, §2, §3, §4
# ALK = molecular target: T17, ALK (Homo sapiens, UniProt Q9UM73)
# T17 construct: purchased DiscoverRx (KINOMEscan contract screen)
# T17 sequence (Q9UM73 19-1620): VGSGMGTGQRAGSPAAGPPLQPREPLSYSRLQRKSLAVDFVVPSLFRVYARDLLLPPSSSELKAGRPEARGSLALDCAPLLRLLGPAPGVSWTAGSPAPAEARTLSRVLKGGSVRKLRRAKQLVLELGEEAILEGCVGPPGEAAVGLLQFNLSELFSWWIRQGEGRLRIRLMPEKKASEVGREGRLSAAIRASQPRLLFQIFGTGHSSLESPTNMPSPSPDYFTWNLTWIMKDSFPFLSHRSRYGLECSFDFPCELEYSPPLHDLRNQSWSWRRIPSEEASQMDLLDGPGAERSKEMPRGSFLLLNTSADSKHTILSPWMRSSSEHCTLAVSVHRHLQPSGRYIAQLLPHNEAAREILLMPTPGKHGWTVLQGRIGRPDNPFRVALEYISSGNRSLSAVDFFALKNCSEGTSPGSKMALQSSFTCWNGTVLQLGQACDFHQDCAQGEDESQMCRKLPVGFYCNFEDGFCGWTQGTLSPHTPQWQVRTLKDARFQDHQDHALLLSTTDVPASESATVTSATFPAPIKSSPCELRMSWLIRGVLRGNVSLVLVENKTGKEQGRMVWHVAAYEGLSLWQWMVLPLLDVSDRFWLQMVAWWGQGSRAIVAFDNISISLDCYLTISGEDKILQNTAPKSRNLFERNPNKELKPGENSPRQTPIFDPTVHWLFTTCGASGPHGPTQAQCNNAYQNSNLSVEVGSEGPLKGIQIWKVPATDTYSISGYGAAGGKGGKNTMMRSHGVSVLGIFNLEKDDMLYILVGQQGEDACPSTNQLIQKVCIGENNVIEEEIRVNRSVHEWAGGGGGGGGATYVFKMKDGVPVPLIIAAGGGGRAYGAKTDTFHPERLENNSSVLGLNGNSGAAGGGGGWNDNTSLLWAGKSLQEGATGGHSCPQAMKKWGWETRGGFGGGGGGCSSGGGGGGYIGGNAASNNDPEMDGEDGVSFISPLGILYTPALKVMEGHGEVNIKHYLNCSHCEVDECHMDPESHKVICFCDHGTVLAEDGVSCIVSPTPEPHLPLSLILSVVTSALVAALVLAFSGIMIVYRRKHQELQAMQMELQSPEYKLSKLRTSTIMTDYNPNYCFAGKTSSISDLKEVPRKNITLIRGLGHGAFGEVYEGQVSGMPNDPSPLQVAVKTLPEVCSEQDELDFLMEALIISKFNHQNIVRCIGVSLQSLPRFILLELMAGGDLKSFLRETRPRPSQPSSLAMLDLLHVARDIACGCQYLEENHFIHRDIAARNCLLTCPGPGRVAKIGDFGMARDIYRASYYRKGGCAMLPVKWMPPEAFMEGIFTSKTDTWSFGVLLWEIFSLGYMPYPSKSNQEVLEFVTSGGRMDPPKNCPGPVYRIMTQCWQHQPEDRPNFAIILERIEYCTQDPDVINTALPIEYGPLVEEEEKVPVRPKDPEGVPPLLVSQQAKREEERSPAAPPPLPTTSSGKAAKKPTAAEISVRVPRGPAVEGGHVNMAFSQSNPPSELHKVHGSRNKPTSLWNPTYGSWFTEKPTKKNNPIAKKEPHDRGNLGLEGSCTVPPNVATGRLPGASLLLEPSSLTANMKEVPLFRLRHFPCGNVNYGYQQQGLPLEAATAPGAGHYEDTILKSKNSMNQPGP
# Experimental: as §1, §2, §3, §4
# PIM1 = molecular target: T18, PIM1 (Homo sapiens, UniProt P11309); conditions: read-out: Percent Control
# T18 construct: purchased DiscoverX KINOMEscan (kinases); BPS Bioscience (epigenetic targets)
# Experimental: as §1, §2, §3, §4
# CDK3 = molecular target: T19, CDK3 (Homo sapiens, UniProt Q00526); conditions: read-out: Percent Control
# T19 construct: purchased DiscoverX KINOMEscan (kinases); BPS Bioscience (epigenetic targets)
# Experimental: as §1, §2, §3, §4
# AXL = molecular target: T20, AXL (Homo sapiens, UniProt P30530); conditions: read-out: Percent Control
# T20 construct: purchased DiscoverX KINOMEscan (kinases); BPS Bioscience (epigenetic targets)
# Experimental: as §1, §2, §3, §4
# FAK = molecular target: T21, FAK (Homo sapiens, UniProt Q05397); conditions: read-out: Percent Control
# T21 construct: purchased DiscoverX KINOMEscan (kinases); BPS Bioscience (epigenetic targets)
# Experimental: as §1, §2, §3, §4
# AKT2 = molecular target: T22, AKT2 (Homo sapiens, UniProt P31751); conditions: read-out: Percent Control
# T22 construct: purchased DiscoverX KINOMEscan (kinases); BPS Bioscience (epigenetic targets)
# Experimental: as §1, §2, §3, §4
# ABL1-phosphorylated = molecular target: T23, ABL1-phosphorylated (Homo sapiens, UniProt P00519); conditions: read-out: Percent Control
# T23 construct: purchased DiscoverX KINOMEscan (kinases); BPS Bioscience (epigenetic targets)
# Experimental: as §1, §2, §3, §4
# ADCK3 = molecular target: T24, ADCK3 (Homo sapiens, UniProt Q8NI60); conditions: read-out: Percent Control
# T24 construct: purchased DiscoverX KINOMEscan (kinases); BPS Bioscience (epigenetic targets)
# Experimental: as §1, §2, §3, §4
# CDK2 = molecular target: T25, CDK2 (Homo sapiens, UniProt P24941); conditions: read-out: Percent Control
# T25 construct: purchased DiscoverX KINOMEscan (kinases); BPS Bioscience (epigenetic targets)
# Experimental: as §1, §2, §3, §4
# p38-beta = molecular target: T26, p38-beta (Homo sapiens, UniProt Q15759); conditions: read-out: Percent Control
# T26 construct: purchased DiscoverX KINOMEscan (kinases); BPS Bioscience (epigenetic targets)
# Experimental: as §1, §2, §3, §4
# IKK-beta = molecular target: T27, IKK-beta (Homo sapiens, UniProt O14920); conditions: read-out: Percent Control
# T27 construct: purchased DiscoverX KINOMEscan (kinases); BPS Bioscience (epigenetic targets)
# Experimental: as §1, §2, §3, §4
# RAF1 = molecular target: T28, RAF1 (Homo sapiens, UniProt P04049); conditions: read-out: Percent Control
# T28 construct: purchased DiscoverX KINOMEscan (kinases); BPS Bioscience (epigenetic targets)
# Experimental: as §1, §2, §3, §4
# TSSK1B = molecular target: T29, TSSK1B (Homo sapiens, UniProt Q9BXA7); conditions: read-out: Percent Control
# T29 construct: purchased DiscoverX KINOMEscan (kinases); BPS Bioscience (epigenetic targets)
# Experimental: as §1, §2, §3, §4
# ACVR1B = molecular target: T30, ACVR1B (Homo sapiens, UniProt P36896); conditions: read-out: Percent Control
# T30 construct: purchased DiscoverX KINOMEscan (kinases); BPS Bioscience (epigenetic targets)
# Experimental: as §1, §2, §3, §4
# MET = molecular target: T31, MET (Homo sapiens, UniProt P08581); conditions: read-out: Percent Control
# T31 construct: purchased DiscoverX KINOMEscan (kinases); BPS Bioscience (epigenetic targets)
# Experimental: as §1, §2, §3, §4
# PAK1 = molecular target: T32, PAK1 (Homo sapiens, UniProt Q13153); conditions: read-out: Percent Control
# T32 construct: purchased DiscoverX KINOMEscan (kinases); BPS Bioscience (epigenetic targets)
# T32 sequence (Q13153 whole entry): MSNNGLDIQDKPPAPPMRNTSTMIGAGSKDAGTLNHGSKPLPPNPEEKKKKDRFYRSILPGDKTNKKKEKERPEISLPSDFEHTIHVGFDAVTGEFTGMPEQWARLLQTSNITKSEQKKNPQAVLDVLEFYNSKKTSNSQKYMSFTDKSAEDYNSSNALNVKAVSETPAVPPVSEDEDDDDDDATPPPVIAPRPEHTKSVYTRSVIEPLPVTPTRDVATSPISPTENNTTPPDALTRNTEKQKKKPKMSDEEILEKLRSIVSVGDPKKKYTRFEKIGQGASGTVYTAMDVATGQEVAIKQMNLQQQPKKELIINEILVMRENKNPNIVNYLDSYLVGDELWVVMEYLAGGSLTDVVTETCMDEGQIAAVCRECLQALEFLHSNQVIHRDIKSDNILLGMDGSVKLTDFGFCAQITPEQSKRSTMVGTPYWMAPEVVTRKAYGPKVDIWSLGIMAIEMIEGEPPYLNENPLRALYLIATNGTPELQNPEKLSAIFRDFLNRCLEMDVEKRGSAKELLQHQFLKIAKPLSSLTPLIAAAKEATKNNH
# Experimental: as §1, §2, §3, §4
# [3] = molecular target: T33, TYK2(JH1domain-catalytic) (Homo sapiens, UniProt P29597); conditions: read-out: Percent Control
# T33 construct: TYK2(JH1domain-catalytic); purchased DiscoverX KINOMEscan (kinases); BPS Bioscience (epigenetic targets)
# Experimental: as §1, §2, §3, §4
# TGFBR1 = molecular target: T34, TGFBR1 (Homo sapiens, UniProt P36897); conditions: read-out: Percent Control
# T34 construct: purchased DiscoverX KINOMEscan (kinases); BPS Bioscience (epigenetic targets)
# Experimental: as §1, §2, §3, §4
# MAPKAPK2 = molecular target: T35, MAPKAPK2 (Homo sapiens, UniProt P49137); conditions: read-out: Percent Control
# T35 construct: purchased DiscoverX KINOMEscan (kinases); BPS Bioscience (epigenetic targets)
# Experimental: as §1, §2, §3, §4
# MKNK2 = molecular target: T36, MKNK2 (Homo sapiens, UniProt Q9HBH9); conditions: read-out: Percent Control
# T36 construct: purchased DiscoverX KINOMEscan (kinases); BPS Bioscience (epigenetic targets)
# Experimental: as §1, §2, §3, §4
# PDPK1 = molecular target: T37, PDPK1 (Homo sapiens, UniProt O15530); conditions: read-out: Percent Control
# T37 construct: purchased DiscoverX KINOMEscan (kinases); BPS Bioscience (epigenetic targets)
# Experimental: as §1, §2, §3, §4
# PIK3CG = molecular target: T38, PIK3CG (Homo sapiens, UniProt P48736); conditions: read-out: Percent Control
# T38 construct: purchased DiscoverX KINOMEscan (kinases); BPS Bioscience (epigenetic targets)
# Experimental: as §1, §2, §3, §4
# CSNK1G2 = molecular target: T39, CSNK1G2 (Homo sapiens, UniProt P78368); conditions: read-out: Percent Control
# T39 construct: purchased DiscoverX KINOMEscan (kinases); BPS Bioscience (epigenetic targets)
# Experimental: as §1, §2, §3, §4
# [4] = 10 µM, read-out: Percent Control
structure (smiles),measurement,setting,value
"COc1cc2c(NC3CCN(C)CC3)cc(-c3ccc(C)o3)nc2cc1OCCCN1CCCC1 [CM-272, 6-methoxy-2-(5-methyl-2-furyl)-N-(1-methyl-4-piperidyl)-7-(3-pyrrolidin-1-ylpropoxy)quinolin-4-amine]",remaining binding at 10 µM,BRAF,14%
same,remaining binding at 10 µM,EGFR(L858R),100%
same,remaining binding at 10 µM,[1]; [4],0%
same,Kd,[1]; KINOMEscan,1800 nM
same,remaining binding at 10 µM,LKB1,100%
same,remaining binding at 10 µM,JNK2,34%
same,remaining binding at 10 µM,FLT3,100%
same,remaining binding at 10 µM,PDGFRA,14%
same,remaining binding at 10 µM,KIT(D816V),100%
same,remaining binding at 10 µM,ULK2,9.8%
same,remaining binding at 10 µM,PIM2,93%
same,remaining binding at 10 µM,[2],25%
same,remaining binding at 10 µM,PAK2,67%
same,remaining binding at 10 µM,TRKA; [4],0%
same,Kd,TRKA; KINOMEscan,1100 nM
same,remaining binding at 10 µM,INSR,5.1%
same,remaining binding at 10 µM,PLK1,31%
same,remaining binding at 10 µM,EPHA2,100%
same,remaining binding at 10 µM,ALK; [4],0.5%
same,Kd,ALK; KINOMEscan,820 nM
same,remaining binding at 10 µM,PIM1,93%
same,remaining binding at 10 µM,CDK3,100%
same,remaining binding at 10 µM,AXL,100%
same,remaining binding at 10 µM,FAK,96%
same,remaining binding at 10 µM,AKT2,100%
same,remaining binding at 10 µM,ABL1-phosphorylated,4.8%
same,remaining binding at 10 µM,ADCK3,100%
same,remaining binding at 10 µM,CDK2,100%
same,remaining binding at 10 µM,p38-beta,92%
same,remaining binding at 10 µM,IKK-beta,13%
same,remaining binding at 10 µM,RAF1,73%
same,remaining binding at 10 µM,TSSK1B,100%
same,remaining binding at 10 µM,ACVR1B,81%
same,remaining binding at 10 µM,MET,91%
same,remaining binding at 10 µM,PAK1,69%
same,remaining binding at 10 µM,[3],22%
same,remaining binding at 10 µM,TGFBR1,78%
same,remaining binding at 10 µM,MAPKAPK2,87%
same,remaining binding at 10 µM,MKNK2,18%
same,remaining binding at 10 µM,PDPK1,100%
same,remaining binding at 10 µM,PIK3CG,88%
same,remaining binding at 10 µM,CSNK1G2,95%
